{
  "source": "patent US12344623B2",
  "about": "“Thiazolopyridine derivatives as adenosine receptor antagonists” (Merck Patent GmbH, priority 2019, dated 2025)",
  "key": {"human A2B receptor": {"molecular_target": "T1, human A2B receptor (Homo sapiens, UniProt P29275)", "T1 construct": "expressed in transfected cells; host or cells: HEK293", "T1 sequence (P29275 1-332)": "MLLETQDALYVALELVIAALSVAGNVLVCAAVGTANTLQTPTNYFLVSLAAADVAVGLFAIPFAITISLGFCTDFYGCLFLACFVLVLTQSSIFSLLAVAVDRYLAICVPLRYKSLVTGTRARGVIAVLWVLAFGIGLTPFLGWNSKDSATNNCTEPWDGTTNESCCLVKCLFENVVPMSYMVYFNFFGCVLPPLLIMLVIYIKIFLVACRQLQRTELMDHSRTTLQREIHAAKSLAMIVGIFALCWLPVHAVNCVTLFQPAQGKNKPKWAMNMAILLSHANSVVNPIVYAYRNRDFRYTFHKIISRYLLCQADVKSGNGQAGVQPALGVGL", "experiment": "Functional A2B receptor activity, recombinant HEK293 cells, cAMP (HTRF), agonist NECA", "type": "cell-based", "conditions": "read-out: Functional A2B receptor activity, HEK293, cAMP, IC50", "procedure,_shortened": "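Forskolin, test compounds and agonist were added together to the cells and incubated for 30 min. Cellular cAMP was then quantified by HTRF. Raw signals were normalized to an inhibitor control and a neutral DMSO control, and the normalized data were curve-fitted.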"}, "human A1 receptor": {"molecular_target": "T2, human A1 receptor (Homo sapiens, UniProt P30542)", "T2 construct": "expressed in transfected cells; host or cells: CHO", "T2 sequence (P30542 1-326)": "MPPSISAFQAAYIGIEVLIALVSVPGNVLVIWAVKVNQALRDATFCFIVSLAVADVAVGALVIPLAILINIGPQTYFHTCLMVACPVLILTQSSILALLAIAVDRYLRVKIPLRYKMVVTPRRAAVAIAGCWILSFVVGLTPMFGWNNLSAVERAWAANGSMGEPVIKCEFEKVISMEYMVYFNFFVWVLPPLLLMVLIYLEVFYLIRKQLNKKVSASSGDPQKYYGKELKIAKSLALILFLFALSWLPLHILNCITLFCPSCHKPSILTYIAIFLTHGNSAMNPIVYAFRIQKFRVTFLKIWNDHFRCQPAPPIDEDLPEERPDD", "experiment": "Functional A1 receptor activity, recombinant CHO cells, cAMP (HTRF), forskolin, agonist CPA", "type": "cell-based", "conditions": "recombinant CHO cells, forskolin, agonist CPA; read-out: Functional A1 receptor activity, CHO, cAMP, IC50", "procedure,_shortened": "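Gi-coupled readout: CHO cells expressing human A1 or A3 receptor were treated with forskolin, test compound and agonist (CPA for A1, IB-MECA for A3) for 30 min; cellular cAMP was then measured by HTRF. Data were normalized to inhibitor and DMSO controls and curve-fitted.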"}, "[1]": {"experiment": "Pharmacokinetic properties in mouse after single intravenous and oral administration", "type": "in vivo", "description": "The objective of the study was to obtain information on the pharmacokinetic properties of the compounds of the present invention in female Wistar rats/mice following single intravenous and oral administration.\nFemale Wistar rats/mice (n=6) received either a single intravenous (bolus) injection or an oral administration (by gavage) of the tested compound. Doses of 0.2 and 10 mg/kg (per compound) were given intravenously and per os, respectively, as a solution in DMSO (0.2%)/PEG 200 (40%)/water for iv administration and as a suspension in Methocel (0.5%)/Tween 20 (0.25%) in water for oral dosing. Consecutive blood samples were taken sub-lingually under isoflurane inhalation from 3 animals per route of administration after 0.1 (only iv), 0.25 (only po), 0.5, 1, 2, 4, 6 and 24 h and were further processed to obtain plasma. Also, urine and feces samples of 3 rats per route of administration were collected over the time interval from 0-24 h and were pooled for analysis.\nThe concentrations of the compounds in plasma, feces were quantified using an UPLC method with tandem mass spectrometric detection (LC-MS/MS) previously developed at the ‘Institute of Drug Metabolism and Pharmacokinetics’. The LCMS/MS system consisted of a Waters Acquity UPLC coupled to an AB Sciex mass spectrometer API 5500 Q-trap. The UPLC separation was carried out on a reversed phase column (HSS T3, […], 2.1×50 mm) using a mobile phase gradient with 0.1% formic acid and acetonitrile as eluents. The detection of the compounds was performed using multiple reaction monitoring in the positive ionization mode. Plasma samples were spiked with internal standard (20 μl) and the analyte was extracted from the matrix using tertiary-butyl methyl ether (tBME). The organic phase was evaporated to dryness under a stream of nitrogen. The residue was dissolved in acetonitrile/0.1% formic acid for LC-MS/MS analysis. Feces samples were homogenized with 4-times their volume of an ethanol/water mixture (4:1, v/v). Aliquots of the aqueous-ethanolic extracts were spiked with internal standard, diluted with acetonitrile/water (1:1, v/v) and directly injected into the LC-MS/MS system.\nPharmacokinetic parameters Cmax and tmax were taken from the observed data. […] AUC values were calculated by non-compartmental analysis using the linear up/log down method. Numerical data for mean plasma concentrations and derived pharmacokinetic parameters were rounded to 3 significant digits for presentation."}},
  "data": [
    {"smiles": "COc1ncc(C2=CCOCC2)c2sc(NC(=O)N3CC[C@@]4(CCCOC4)C3)nc12", "note": "[Compound 25, (S)-7-Oxa-2-aza-spiro[4.5]decane-2-carboxylic acid [7-(3,6-dihydro-2H-pyran-4-yl)-4-methoxy-thiazolo[4,5-c]pyridin-2-yl]-amide]", "values": [
      {"measurement": "IC50", "setting": "human A2B receptor", "value": "< 10", "unit": "nM"},
      {"measurement": "IC50", "setting": "human A1 receptor", "value": "> 1000", "unit": "nM"},
      {"measurement": "Feces iv", "setting": "[1]; @0.2 (mg/kg), % of dose excreted in feces", "value": "22@0.2%"},
      {"measurement": "clearance", "setting": "[1]; female, plasma, 0.2 mg/kg", "value": 77.5, "unit": "mL/min/kg"},
      {"measurement": "Cmax", "setting": "[1]; female, plasma, 0.2 mg/kg, dose-normalized to 1 mg/kg", "value": 500, "unit": "ng/mL"},
      {"measurement": "Vd", "setting": "[1]; female, plasma, 0.2 mg/kg, read-out: Vss", "value": 3.16, "unit": "L/kg"},
      {"measurement": "half-life", "setting": "[1]; female, plasma, 0.2 mg/kg, read-out: t½ (converted)", "value": 54.6, "unit": "min"}
    ]}
  ]
}
